Results reported in ChEMBL document CHEMBL1201862, “PubChem BioAssay data set” (2004).
Several values for one entry are separate records, joined by “and”; a condition that tells them apart may be missing. Equal entries are not always repeated. Activity calls are given as the source filed them.

Experiments:
[1] = inhibitors of non-replicating M. tuberculosis, dose response, luciferase, dry powder (AID 651620); assay type: functional; settings: Mycobacterium tuberculosis
[2] = inhibitors of non-replicating M. tuberculosis, dose response, luciferase, dry powder (AID 651619); assay type: functional; settings: Mycobacterium tuberculosis
[3] = molecular target: T1, Sentrin-specific protease 6 (Homo sapiens, UniProt Q9GZR1); assay type: functional;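 further: Luminescence-based dose-response confirmatory assay of SENP6 inhibition, following up an ultra-high-throughput screen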
T1 sequence (Q9GZR1 whole entry): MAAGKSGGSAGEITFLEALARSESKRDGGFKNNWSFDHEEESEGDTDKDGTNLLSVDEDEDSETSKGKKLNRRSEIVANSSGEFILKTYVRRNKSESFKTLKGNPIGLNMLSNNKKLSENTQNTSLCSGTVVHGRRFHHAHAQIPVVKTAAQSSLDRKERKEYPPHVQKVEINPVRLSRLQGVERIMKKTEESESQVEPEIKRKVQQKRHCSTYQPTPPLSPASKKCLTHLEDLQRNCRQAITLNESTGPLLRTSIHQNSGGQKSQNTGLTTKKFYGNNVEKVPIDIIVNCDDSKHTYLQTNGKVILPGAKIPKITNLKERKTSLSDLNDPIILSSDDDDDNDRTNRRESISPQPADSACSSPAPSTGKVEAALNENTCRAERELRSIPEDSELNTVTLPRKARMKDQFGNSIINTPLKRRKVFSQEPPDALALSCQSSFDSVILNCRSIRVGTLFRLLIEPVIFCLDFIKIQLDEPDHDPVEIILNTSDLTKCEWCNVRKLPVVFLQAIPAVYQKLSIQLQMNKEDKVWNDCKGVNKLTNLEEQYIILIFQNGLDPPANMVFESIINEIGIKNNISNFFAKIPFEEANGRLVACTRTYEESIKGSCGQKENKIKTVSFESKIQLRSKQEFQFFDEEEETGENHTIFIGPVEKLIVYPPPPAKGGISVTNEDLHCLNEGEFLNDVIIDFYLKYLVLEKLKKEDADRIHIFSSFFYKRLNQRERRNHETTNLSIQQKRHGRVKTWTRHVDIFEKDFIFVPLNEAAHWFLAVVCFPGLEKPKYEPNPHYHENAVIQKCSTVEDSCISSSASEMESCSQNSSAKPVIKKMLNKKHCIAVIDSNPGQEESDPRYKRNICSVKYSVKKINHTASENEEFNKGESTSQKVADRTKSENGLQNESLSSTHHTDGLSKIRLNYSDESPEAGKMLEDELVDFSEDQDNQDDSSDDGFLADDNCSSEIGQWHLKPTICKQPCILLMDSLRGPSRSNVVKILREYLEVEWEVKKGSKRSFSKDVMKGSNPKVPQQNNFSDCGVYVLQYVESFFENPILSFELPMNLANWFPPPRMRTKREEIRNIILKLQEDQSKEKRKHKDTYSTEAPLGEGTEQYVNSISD

[4] = molecular target: T2, Sentrin-specific protease 8 (Homo sapiens, UniProt Q96LD8); assay type: functional;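 further: luminescence read-out of SENP8 inhibition, dose-response confirmation following an ultra-high-throughput screen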
T2 sequence (Q96LD8 whole entry): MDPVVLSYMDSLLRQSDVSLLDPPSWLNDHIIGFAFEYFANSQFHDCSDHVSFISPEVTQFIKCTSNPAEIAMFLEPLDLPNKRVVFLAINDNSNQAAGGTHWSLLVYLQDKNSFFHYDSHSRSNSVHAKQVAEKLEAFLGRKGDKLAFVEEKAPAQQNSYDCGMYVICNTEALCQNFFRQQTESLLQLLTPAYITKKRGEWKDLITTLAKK

[5] = molecular target: T3, Oxysterols receptor LXR-beta (Homo sapiens, UniProt P55055); assay type: functional, cell-based
T3 sequence (P55055 whole entry): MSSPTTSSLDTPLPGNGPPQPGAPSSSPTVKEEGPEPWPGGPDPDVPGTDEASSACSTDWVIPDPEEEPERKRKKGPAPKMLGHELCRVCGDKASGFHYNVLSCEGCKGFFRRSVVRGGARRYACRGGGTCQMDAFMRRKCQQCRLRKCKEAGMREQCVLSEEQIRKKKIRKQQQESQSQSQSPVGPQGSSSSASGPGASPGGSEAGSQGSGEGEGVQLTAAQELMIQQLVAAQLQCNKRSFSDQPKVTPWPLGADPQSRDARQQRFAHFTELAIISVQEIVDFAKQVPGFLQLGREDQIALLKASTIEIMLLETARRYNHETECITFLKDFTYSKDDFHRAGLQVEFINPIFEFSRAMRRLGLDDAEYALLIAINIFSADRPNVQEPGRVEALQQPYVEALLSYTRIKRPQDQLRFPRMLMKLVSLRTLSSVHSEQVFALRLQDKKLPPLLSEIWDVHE

[6] = molecular target: T4, Sentrin-specific protease 7 (Homo sapiens, UniProt Q9BQF6); assay type: functional;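 further: Luminescence-based dose-response confirmation of ultra-high-throughput screening hits, measuring inhibition of SENP7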
T4 sequence (Q9BQF6 whole entry): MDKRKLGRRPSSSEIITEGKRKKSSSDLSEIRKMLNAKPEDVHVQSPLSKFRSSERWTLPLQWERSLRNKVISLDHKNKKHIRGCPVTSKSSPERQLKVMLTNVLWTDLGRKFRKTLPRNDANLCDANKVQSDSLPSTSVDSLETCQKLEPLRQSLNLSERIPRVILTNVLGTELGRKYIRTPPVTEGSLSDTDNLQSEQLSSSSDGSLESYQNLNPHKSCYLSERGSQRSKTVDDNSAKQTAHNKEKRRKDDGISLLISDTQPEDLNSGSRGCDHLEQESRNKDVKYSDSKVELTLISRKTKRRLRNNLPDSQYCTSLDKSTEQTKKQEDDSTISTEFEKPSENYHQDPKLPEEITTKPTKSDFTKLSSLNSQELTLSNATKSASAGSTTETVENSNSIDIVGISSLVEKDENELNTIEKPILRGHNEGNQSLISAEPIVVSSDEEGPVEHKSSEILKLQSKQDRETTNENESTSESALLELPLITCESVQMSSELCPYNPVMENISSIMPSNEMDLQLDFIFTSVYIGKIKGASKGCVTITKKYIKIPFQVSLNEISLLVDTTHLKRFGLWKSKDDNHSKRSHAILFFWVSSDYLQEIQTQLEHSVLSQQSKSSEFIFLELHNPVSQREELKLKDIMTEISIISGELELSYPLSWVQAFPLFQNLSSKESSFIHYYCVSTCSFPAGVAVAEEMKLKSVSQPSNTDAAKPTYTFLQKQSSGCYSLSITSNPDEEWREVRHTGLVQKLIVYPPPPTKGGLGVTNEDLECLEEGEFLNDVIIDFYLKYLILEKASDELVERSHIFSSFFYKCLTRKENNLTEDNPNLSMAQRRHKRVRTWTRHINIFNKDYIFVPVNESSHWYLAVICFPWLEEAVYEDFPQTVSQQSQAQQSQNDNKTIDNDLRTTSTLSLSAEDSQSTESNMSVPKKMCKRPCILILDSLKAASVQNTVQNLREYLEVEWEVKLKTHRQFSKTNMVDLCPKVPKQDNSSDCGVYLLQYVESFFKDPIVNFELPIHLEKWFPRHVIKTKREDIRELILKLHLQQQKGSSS

Caspase-3 = molecular target: T5, Caspase-3 (Homo sapiens, UniProt P42574); assay type: functional;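 further: Dose-response selectivity test against caspase-3 for candidate inhibitors of sentrin-specific proteases (SENPs)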
T5 sequence (P42574 whole entry): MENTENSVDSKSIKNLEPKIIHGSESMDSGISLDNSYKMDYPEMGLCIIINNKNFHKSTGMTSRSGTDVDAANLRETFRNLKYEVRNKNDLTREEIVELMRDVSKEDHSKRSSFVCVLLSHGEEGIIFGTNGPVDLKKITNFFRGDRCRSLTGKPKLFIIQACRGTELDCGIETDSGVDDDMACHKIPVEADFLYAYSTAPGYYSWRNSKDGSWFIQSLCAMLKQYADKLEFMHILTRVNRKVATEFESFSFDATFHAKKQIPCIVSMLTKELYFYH

cells [7] = experiment: cells
[8] = miR-122 activators in hepatoma reporter cells, dose response, cell-based, Huh7 psiCHECK-miR122, Renilla luciferase, cherry-picked (AID 651956); assay type: functional;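 further: huh7 hepatoma cells stably carrying a psiCHECK-2 miR-122 sensor plasmid; renilla luciferase signal reporting endogenous miR-122 activity after 48 h compound exposure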
[9] = HEK293T cytotoxicity, dose response, cytotoxicity control for miR-122 modulator project, cell-based, inhibitor set, cherry-pick, set 2 (AID 720697); assay type: functional
[10] = A549 cell cytotoxicity, dose response, cytotoxicity control, 24 h, CellTiter-Glo luminescence, cherry-picks (AID 1053115); assay type: functional, cell-based; settings: A549, 24 h
[11] = HEK293T cytotoxicity, dose response, cytotoxicity control for miR-122 modulator project, cell-based, activator set, cherry-pick (AID 720690); assay type: functional;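 further: HEK293T human cells scored for general mammalian cytotoxicity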
[12] = HeLa cell cytotoxicity, dose response, cytotoxicity control, 24 h, plate reader, powder samples, set 3 (AID 651864); assay type: functional, cell-based
[13] = cytotoxicity toward NIH3T3 fibroblasts, dose response, counter-screen, cell-based, ATP luminescence, mouse fibroblasts (AID 2010); assay type: functional;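 further: cells exposed to compound for about 90 hours before reading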
[14] = inhibitors of intracellular T. cruzi replication, confirmation, NIH3T3 host cells, beta-gal luminescence (AID 2044); assay type: functional, cell-based;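 further: intracellular parasites grown in NIH/3T3 mouse fibroblasts as host cells; luminescent beta-galactosidase reporter signal from transgenic T. cruzi replicating inside host cells; inhibitors lower the luminescence signal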
Paired box protein Pax-8 = Paired box protein Pax-8 (Homo sapiens, UniProt Q06710); experiment: inhibitors of PAX8-driven TPO luciferase reporter, dose response, RMG-I cells, cherry-pick (AID 687027); assay type: functional, cell-based;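 further: luciferase reporter driven by Pax8 target thyroperoxidase promoter measured by SteadyGlo luminescence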
[15] = inhibitors of CMV-promoter luciferase reporter, dose response, counter-screen for Pax8 inhibitor project, cell-based, HEK293, luminescence, dry powder (AID 743020); assay type: functional
[16] = inhibitors of fibronectin matrix deposition, dose response, AH1F cells, Alexa488-FN fluorescence, cherry-picks (AID 1035475); assay type: functional, cell-based
[17] = HEK293 cell cytotoxicity, dose response, cytotoxicity control, cherry-picks, set 5 (AID 1053117); assay type: functional, cell-based
[18] = HepG2 cell cytotoxicity, dose response, cytotoxicity control, cherry-picks, set 5 (AID 1053118); assay type: functional, cell-based
[19] = CFTR ΔF508 corrector activity in bronchial cells, dose response, human bronchial epithelial cells, plate reader, cherry-pick, two tests (AID 743267); assay type: functional, cell-based
[20] = molecular target: Metabotropic glutamate receptor 3 (Rattus norvegicus, UniProt P31422); experiment: mGlu3 negative allosteric modulator potency, dose response, HEK/GIRK cells, thallium flux, rat (AID 651839); assay type: functional
cells [21] = experiment: cells; remark: listed apart in the source
[22] = inhibitors of PGC1a acetylation in cells, dose response, cell-based, cherry-picked samples (AID 720514); assay type: functional;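 further: potency may reflect raised or lowered acetylation signal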
[23] = T. cruzi intracellular amastigote growth inhibition, dose response, imaging, CA-I/72 strain, bovine embryo skeletal muscle, dry powder (AID 651885); assay type: functional, cell-based
[24] = T. cruzi growth inhibition in host cells, dose response, cell-based, plate reader, dry powder, set 2 (AID 652275); assay type: functional
[25] = growth inhibition of intracellular T. cruzi, dose response, cell-based, plate reader, dry powder samples (AID 651845); assay type: functional
[26] = HepG2 cell cytotoxicity, dose response, cytotoxicity control, ATP luminescence, cherry-pick, activator set 2 (AID 1053143); assay type: functional, cell-based
[27] = molecular target: T3, Oxysterols receptor LXR-beta; assay type: functional, cell-based; remark: listed apart in the source
[28] = CEM21 cell cytotoxicity, dose response, cytotoxicity control, plate reader, dry powder (AID 687026); assay type: functional, cell-based
[29] = HIV Env cell-cell fusion inhibitors, dose response, HIV entry, plate reader, dry powder (AID 687023); assay type: functional, cell-based

Metabotropic glutamate receptor 3, sequence (P31422 whole entry): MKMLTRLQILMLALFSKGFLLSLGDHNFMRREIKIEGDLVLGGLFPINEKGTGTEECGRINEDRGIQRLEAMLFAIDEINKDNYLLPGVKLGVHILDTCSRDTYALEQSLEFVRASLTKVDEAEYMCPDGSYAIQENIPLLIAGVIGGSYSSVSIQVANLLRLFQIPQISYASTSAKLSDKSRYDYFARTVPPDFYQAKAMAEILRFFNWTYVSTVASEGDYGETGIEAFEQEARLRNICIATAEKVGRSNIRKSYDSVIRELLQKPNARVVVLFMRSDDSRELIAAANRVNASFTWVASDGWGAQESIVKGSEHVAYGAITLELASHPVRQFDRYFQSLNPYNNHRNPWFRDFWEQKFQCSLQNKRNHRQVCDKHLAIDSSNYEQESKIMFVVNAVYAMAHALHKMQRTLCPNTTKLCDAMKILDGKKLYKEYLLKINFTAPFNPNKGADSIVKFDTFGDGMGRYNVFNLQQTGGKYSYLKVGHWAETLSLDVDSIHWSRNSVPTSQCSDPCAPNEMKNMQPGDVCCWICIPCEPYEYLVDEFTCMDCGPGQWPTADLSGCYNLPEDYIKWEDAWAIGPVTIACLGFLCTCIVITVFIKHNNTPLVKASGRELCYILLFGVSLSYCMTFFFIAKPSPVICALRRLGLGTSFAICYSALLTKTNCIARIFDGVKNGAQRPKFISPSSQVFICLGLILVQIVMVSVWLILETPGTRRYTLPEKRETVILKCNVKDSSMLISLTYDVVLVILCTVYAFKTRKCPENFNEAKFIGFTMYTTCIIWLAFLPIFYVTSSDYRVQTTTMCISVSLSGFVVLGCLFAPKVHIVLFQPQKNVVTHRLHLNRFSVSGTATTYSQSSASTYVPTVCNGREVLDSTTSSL
Paired box protein Pax-8, sequence (Q06710 whole entry): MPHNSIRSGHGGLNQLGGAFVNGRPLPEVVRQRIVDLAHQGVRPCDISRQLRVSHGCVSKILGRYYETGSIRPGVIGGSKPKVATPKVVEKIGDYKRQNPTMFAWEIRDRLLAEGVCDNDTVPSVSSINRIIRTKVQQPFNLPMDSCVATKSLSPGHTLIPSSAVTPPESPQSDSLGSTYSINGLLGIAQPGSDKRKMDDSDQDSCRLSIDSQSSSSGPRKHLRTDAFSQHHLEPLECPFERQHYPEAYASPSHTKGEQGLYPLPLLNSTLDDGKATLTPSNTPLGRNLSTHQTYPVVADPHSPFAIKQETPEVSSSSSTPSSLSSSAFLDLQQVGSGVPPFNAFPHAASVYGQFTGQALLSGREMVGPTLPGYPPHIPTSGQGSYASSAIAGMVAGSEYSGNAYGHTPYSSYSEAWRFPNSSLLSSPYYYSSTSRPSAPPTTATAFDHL

[N-]=[N+]=NCCOCCNC(=O)CCCOc1ccc(C[S+]([O-])c2nnc(-c3ccc(F)cc3)o2)nc1 (stereo unspecified)
IC90 [1]: 8 µM (active)
IC90 [2]: 8 µM (active)

Cc1cc(C)nc(Nc2nc(-c3ccccc3)cs2)n1
IC50 [3]: 2.1 µM (active)
IC50 [4]: 3.29 µM (active)
EC50 [5]: > 67.5 µM (inactive)
IC50 [6]: 1.89 µM (active)
IC50 (Caspase-3): > 100 µM (inactive)
EC50 (cells [7]): > 67.5 µM (inactive)

C[C@H](CO)N1C[C@H](C)[C@H](CN(C)Cc2ccc(-c3ccccc3)cc2)Oc2cc(C#C[C@@H](C)O)ccc2S1(=O)=O
AC50 [8]: 37.3 µM (active)
AC50 [9]: 2.82 µM (active)
AC50 [10]: 50.9 µM (active)
AC50 [11]: 12.3 µM (active)

CCC(C)NC(=O)Cc1ccc(-c2ccccc2)cc1 (stereo unspecified)
AC50 [12]: 141 µM (active)
EC50 [13]: > 60 µM (not active)
EC50 [14]: 0.794 µM (active)

Cc1ccc(S(=O)(=O)CCC(=O)c2ccc(F)cc2)cc1
AC50 (Paired box protein Pax-8): 11.3 µM (active)
AC50 [15]: 27.9 µM (active)

C[C@H]1CN([C@@H](C)CO)C(=O)c2cc(NC(=O)C3CCCCC3)ccc2O[C@@H]1CN(C)Cc1ccc(-c2ccccc2)cc1
AC50 [16]: > 70 µM (inactive)
AC50 [17]: 51.3 µM (active)

Cc1ccc(N(CC(=O)NCc2ccco2)S(=O)(=O)c2ccccc2)cc1
AC50 [18]: > 52 µM (inactive)

COc1cc(/C=C(\CC(=O)O)c2nc3ccccc3s2)ccc1OCC(=O)Nc1ccccc1F
AC50 [19]: 58.5 µM (active)

COc1ccc(-c2ccc3cc(C(=O)N4CCCC(CO)C4)ccc3c2)cc1OC (stereo unspecified)
IC50 [20]: 2.61 µM

CC(C)N1CCc2c(sc(NC(=O)Cc3ccccc3)c2C#N)C1
AC50 (cells [21]): 10.8 µM (active)

CCOc1ccnc(OCC)c1Br
AC50 [22]: 32.8 µM (active)

CC(C)N1C[C@@H](C)[C@H](CN(C)Cc2cccc(Oc3ccccc3)c2)Oc2c(NC(=O)c3ccncc3)cccc2C1=O
IC50 [23]: 1.5 µM (inconclusive)
AC50 [24]: 0.075 nM (active)
AC50 [25]: 0.00713 µM (active)

Cc1nc2[nH]c(-c3cccs3)nc2cc1Br
AC50 [26]: 26 µM (active)
EC50 [27]: > 67.5 µM (inactive)

CCOc1ccc(S(=O)(=O)NCc2ccccc2)cc1
AC50 [28]: > 70 µM (inactive)
AC50 [29]: 66.7 µM (active) and > 70 µM (inactive)
